Results: US7034056B2, “Aryl and biaryl compounds having MCH modulatory activity” (Pharmacopeia Drug Discovery, inc., priority 2001, dated 2006)
pKi: −log10 of the molar value.

These compounds were tested against T1, hMCHR (MCH receptor) (Homo sapiens, UniProt Q99705) (assay: MCH Assay PCOP Protocol ([125I]-MCH SPA binding to hMCHR-CHO membranes)). Settings: [125I]-MCH 0.5 nM, hMCHR-CHO membranes; read-out: Activity (ranges of Ki values).
T1 construct: (or internally produced); host or cells: CHO (Chinese hamster ovary) cells, membrane preparation
T1 sequence (Q99705 whole entry): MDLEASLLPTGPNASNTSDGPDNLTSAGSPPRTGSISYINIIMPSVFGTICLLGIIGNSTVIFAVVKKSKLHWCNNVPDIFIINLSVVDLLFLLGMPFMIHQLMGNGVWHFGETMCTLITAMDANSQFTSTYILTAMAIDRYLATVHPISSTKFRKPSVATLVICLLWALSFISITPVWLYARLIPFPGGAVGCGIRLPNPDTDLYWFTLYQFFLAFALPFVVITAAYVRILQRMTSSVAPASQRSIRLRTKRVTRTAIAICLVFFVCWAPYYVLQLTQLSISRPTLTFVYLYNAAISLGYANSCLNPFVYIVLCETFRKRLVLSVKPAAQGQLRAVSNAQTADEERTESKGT
Experimental: A reaction mixture of 10 μg hMCHR-CHO overexpressing membranes (from Receptor Biology, Inc., Beltsville, Md., or internally produced) and 100 μg/well WGA-SPA beads (from Amersham Pharmacia Biotech, Inc., Piscataway, N.J.)/100 μl was prepared in MCHR assay buffer (25 mM HEPES, pH 7.4, 10 mM NaCl, 10 mM MgCl2, 5 mM MnCl2, 0.1% BSA). […] The assay plates were shaken for 5 minutes on a plate shaker, then incubated for 2 hours before cpm/well were determined in a Microbeta Trilux counter (from PerkinElmer Wallac, Inc., Gaithersburg, Md.).
For `O=C(NCC(CCNC1CCCC1)c1ccc(Cl)c(Cl)c1)c1cc(C(F)(F)F)cc(C(F)(F)F)c1` (racemic) [Example 20, (R,S)-N-[4-Cyclopentylamino-2-(3,4-dichloro-phenyl)-butyl]-3,5-bis-trifluoromethyl-benzamide], the pKi was 5.60 to 6.30.
Compound `O=S(=O)(NCC(CCNC1CCCC1)c1ccc(Cl)c(Cl)c1)c1ccc(Cl)c(Cl)c1` (racemic) [Example 21, (R,S)-3,4-Dichloro-N-[4-cyclopentylamino-2-(3,4-dichloro-phenyl)-butyl]-benzenesulfonamide] has a pKi of 5.60 to 6.30.
`O=C(NCC(CCNC1CCC1)c1ccc(Cl)c(Cl)c1)Nc1ccc(F)c([N+](=O)[O-])c1` (racemic) [Example 22] gave a pKi of 5.60 to 6.30.
In the case of `CNCCC(CNC(=O)c1ccc(F)c(F)c1)c1ccc(-c2cccc(C#N)c2)cc1` (racemic) [Example 24, (R,S)-N-[2-(3′-Cyano-biphenyl-4-yl)-4-methylamino-butyl]-3,4-difluoro-benzamide], the pKi was 5.60 to 6.30.
For `CN(C)CCC(CNS(=O)(=O)c1cc(Cl)cc(Cl)c1)c1ccc(-c2cccc(C#N)c2)cc1` (racemic) [Example 25, (R,S)-3,5-Dichloro-N-[2-(3′-cyano-biphenyl-4-yl)-4-dimethylaminobutyl]-benzenesulfonamide], the pKi was 5.60 to 6.30.
With `CC(C)NCCC(CNC(=O)Oc1ccc(Cl)cc1)c1ccc(-c2cccc(C#N)c2)cc1` (racemic) [Example 26, (R,S)-[-2-(3′-Cyano-biphenyl-4-yl)-4-isopropylaminobutyl]-carbamic acid-4-chlorophenyl ester] the pKi was 5.60 to 6.30.
`CS(=O)(=O)NC1CCN(CCC(CNC(=O)Nc2cc(Cl)cc(Cl)c2)c2ccc(-c3cccc(C#N)c3)cc2)CC1` (racemic) [Example 29, (R,S)-N-(1-{3-(3′-Cyano-biphenyl-4-yl)-4-[3-(3,5-dichloro-phenyl)-ureido]-butyl}-piperidin-4-yl)methane-sulfonamide] gave a pKi of 5.60 to 6.30.
With `CN(CCC(C(=O)NCc1cc(C(F)(F)F)cc(C(F)(F)F)c1)c1ccc(Cl)c(Cl)c1)C1CCCCC1` (racemic) [Example 30, (R,S)-N-(3,5-Bistrifluoromethyl-benzyl)-4-(cyclohexyl-methyl-amino)-2-(3,4-dichloro-phenyl)-butyramide] the pKi was 5.60 to 6.30.
With `CCNC(=O)NC1CCN(CCC(CNC(=O)Nc2cc(Cl)cc(Cl)c2)c2ccc(-c3cccc(C#N)c3)cc2)C1` [Example 27, (R,S)-1-1-{3-(3′-Cyano-biphenyl-4-yl)-4-[3 (3,5-dichloro-phenyl)-ureido]-butyl}-pyrrolidin-3-yl)-3-ethyl-urea] the pKi was 5.60 to 6.30.
`N#Cc1cccc(-c2ccc([C@H](CCN3CC[C@@H](NC(=O)c4cc(Cl)cc(Cl)c4)C3)CNC(=O)Nc3cc(Cl)cc(Cl)c3)cc2)c1` [Example 28, (R,S)-3,5-Dichloro-N-(1-{3-(3′-cyano-biphenyl-4-yl)-4-[3-(3,5-dichloro-phenyl)-ureido]-butyl}-pyrrolidin-3-yl)-benzamide] was tested, and the pKi was 5.60 to 6.30.
`CNCCC(C(=O)Nc1cc(Cl)cc(Cl)c1)c1ccc(-c2cccc(C#N)c2)cc1` (centres unmarked) [Example 31, 2-(3′-Cyano-biphenyl-4-yl)-N-(3,5-dichloro-phenyl)-4-methylamino-butyramide] was tested, and the pKi was 5.60 to 6.30.
Compound `CN(C)CCC(CN1CCN(c2cc(Cl)cc(Cl)c2)C1=O)c1ccc(-c2cccc(C#N)c2)cc1` (centres unmarked) [Example 32, 4′-{1-[3-(3,5-Dichlorophemyl)-2-oxoimidazolidin-1-ylmethyl]-3-dimethylaminopropyl}-biphenyl-3-carbonitrile] has a pKi of 5.60 to 6.30.
For `CN(C)CCC(OC(=O)Nc1cc(Cl)cc(Cl)c1)c1ccc(-c2ccncc2)cc1` (centres unmarked) [Example 33, (3,5-Dichloro-phenyl)-carbamic acid 3-dimethylamino-1-(4-pyridin-4-yl-phenyl)-propyl ester], the pKi was 5.60 to 6.30.
Compound `CN(C)CCCNCCC(CNC(=O)Nc1cc(Cl)cc(Cl)c1)c1ccc(-c2cccnc2)cc1` (centres unmarked) [Example 35] has a pKi of 7.30 to 9.40.
`CN(C)CCC(CNC(=O)Nc1cc(Cl)cc(Cl)c1)c1ccc(-c2cccnc2)cc1` (centres unmarked) [Example 36] gave a pKi of 7.30 to 9.40.
For `O=C(NCC(CCNC1CCCC1)c1ccc(-c2cc[n+]([O-])cc2)cc1)Nc1cc(Cl)cc(Cl)c1` (centres unmarked) [Example 37], the pKi was 7.30 to 9.40.
For `CN(C)CCC(CNC(=O)Nc1cc(Cl)cc(Cl)c1)c1ccc(-c2cccc(C(N)=O)c2)cc1` (centres unmarked) [Example 38], the pKi was 7.30 to 9.40.
`CN(C)CCC(CNC(=O)Nc1cc(Cl)cc(Cl)c1)c1ccc(-c2ccncc2)cc1` (centres unmarked) [Example 39] showed a pKi of 6.30 to 7.29.
`C[N+](C)([O-])CCC(CNC(=O)Nc1cc(Cl)cc(Cl)c1)c1ccc(-c2ccc[n+]([O-])c2)cc1` (centres unmarked) [Example 40] showed a pKi of 5.60 to 6.30.
`C[N+](C)([O-])CCC(CNC(=O)Nc1cc(Cl)cc(Cl)c1)c1ccc(-c2cc[n+]([O-])cc2)cc1` (centres unmarked) [Example 41] showed a pKi of 5.60 to 6.30.
`CN(C)CCC(OC(=O)Nc1cc(Cl)cc(Cl)c1)c1ccc(-c2cccnc2)cc1` (centres unmarked) [Example 42] gave a pKi of 5.60 to 6.30.
`N#Cc1cccc(-c2ccc(C(CCNC3CC3)CNC(=O)Nc3cccc(Cl)c3)cc2)c1` (centres unmarked) [Example 43] showed a pKi of 7.30 to 9.40.
Compound `CNCCC(CNC(=O)Nc1ccc(F)c(F)c1)c1ccc(-c2cccc(C#N)c2)cc1` (centres unmarked) [Example 44] has a pKi of 7.30 to 9.40.
Compound `CNCCC(CNC(=O)Nc1cccc(Cl)c1)c1ccc(-c2cccc(C#N)c2)cc1` (centres unmarked) [Example 45] has a pKi of 7.30 to 9.40.
In the case of `CNCCC(CNC(=O)Nc1ccc(F)c(Cl)c1)c1ccc(-c2cccc(C#N)c2)cc1` (centres unmarked) [Example 46], the pKi was 7.30 to 9.40.
Compound `CNCCC(CNC(=O)Nc1cccc(F)c1)c1ccc(-c2cccc(C#N)c2)cc1` (centres unmarked) [Example 49] has a pKi of 7.30 to 9.40.
`N#Cc1cccc(-c2ccc(C(CCNC3CC3)CNC(=O)Nc3ccc(F)c(F)c3)cc2)c1` (centres unmarked) [Example 53] gave a pKi of 7.30 to 9.40.
Work on `N#Cc1cccc(-c2ccc(C(CCNC3CC3)CNC(=O)Nc3cccc(F)c3)cc2)c1` (centres unmarked) [Example 54] yielded a pKi of 7.30 to 9.40.
`N#Cc1cccc(-c2ccc(C(CCNC3CC3)CNC(=O)Nc3ccc(F)c(Cl)c3)cc2)c1` (centres unmarked) [Example 56] showed a pKi of 7.30 to 9.40.
`CNCCC(CNC(=O)Nc1ccccc1)c1ccc(-c2cccc(C#N)c2)cc1` (centres unmarked) [Example 57] gave a pKi of 7.30 to 9.40.
In the case of `N#Cc1cccc(-c2ccc(C(CCNC3CC3)CNC(=O)Nc3ccccc3)cc2)c1` (centres unmarked) [Example 58], the pKi was 7.30 to 9.40.
Compound `N#Cc1cccc(-c2ccc(C(CCNC3CC3)CNC(=O)Nc3ccc(F)cc3)cc2)c1` (centres unmarked) [Example 59] has a pKi of 7.30 to 9.40.
With `CNCCC(CNC(=O)Nc1ccc(F)cc1)c1ccc(-c2cccc(C#N)c2)cc1` (centres unmarked) [Example 60] the pKi was 7.30 to 9.40.
`COc1cccc(NC(=O)NCC(CCN(C)C)c2ccc(-c3cccc(C#N)c3)cc2)c1` (centres unmarked) [Example 63] was tested, and the pKi was 7.30 to 9.40.
`CNCCC(CNC(=O)Nc1ccc(Cl)cc1)c1ccc(-c2cccc(C#N)c2)cc1` (centres unmarked) [Example 64] was tested, and the pKi was 7.30 to 9.40.
Compound `N#Cc1cccc(-c2ccc(C(CCNC3CC3)CNC(=O)Nc3ccc(Cl)cc3)cc2)c1` (centres unmarked) [Example 65] has a pKi of 7.30 to 9.40.
Work on `CN(C)CCC(CNC(=O)c1cc(F)cc(F)c1)c1ccc(-c2cccc(C#N)c2)cc1` (centres unmarked) [Example 66] yielded a pKi of 7.30 to 9.40.
Work on `CN(C)CCC(CNC(=O)c1ccc(F)c(F)c1)c1ccc(-c2cccc(C#N)c2)cc1` (centres unmarked) [Example 67] yielded a pKi of 6.30 to 7.29.
For `N#Cc1cccc(-c2ccc(C(CCNC3CC3)CNC(=O)c3ccc(F)c(F)c3)cc2)c1` (centres unmarked) [Example 68], the pKi was 6.30 to 7.29.
With `N#Cc1cccc(-c2ccc(C(CCNC3CC3)CNC(=O)c3cc(F)cc(F)c3)cc2)c1` (centres unmarked) [Example 69] the pKi was 6.30 to 7.29.
`CNCCC(CNC(=O)c1cc(F)cc(F)c1)c1ccc(-c2cccc(C#N)c2)cc1` (centres unmarked) [Example 70] showed a pKi of 6.30 to 7.29.
For `CN(C)CCC(CNC(=O)Nc1cccnc1)c1ccc(-c2cccc(C#N)c2)cc1` (centres unmarked) [Example 71], the pKi was 6.30 to 7.29.
Work on `COCCNCCC(CNC(=O)Nc1cc(Cl)cc(Cl)c1)c1ccc(-c2cccc(C#N)c2)cc1` (centres unmarked) [Example 72] yielded a pKi of 7.30 to 9.40.
For `N#Cc1cccc(-c2ccc(C(CCNC3CCCC3)CNC(=O)Nc3ccc(F)c(F)c3)cc2)c1` (centres unmarked) [Example 74], the pKi was 7.30 to 9.40.
`N#Cc1cccc(-c2ccc(C(CCNC3CCCC3)CNC(=O)Nc3ccc(F)c(Cl)c3)cc2)c1` (centres unmarked) [Example 75] showed a pKi of 7.30 to 9.40.
With `N#Cc1cccc(-c2ccc(C(CCNC3CC3)CNC(=O)Nc3cc(Cl)cc(Cl)c3)cc2)c1` (centres unmarked) [Example 76] the pKi was 7.30 to 9.40.
In the case of `N#Cc1cccc(-c2ccc(C(CCN3CCOCC3)CNC(=O)Nc3cc(Cl)cc(Cl)c3)cc2)c1` (centres unmarked) [Example 81], the pKi was 7.30 to 9.40.
For `N#Cc1cccc(-c2ccc(C(CCNC3CCCC3)CNC(=O)c3cc(Cl)cc(Cl)c3)cc2)c1` (centres unmarked) [Example 82], the pKi was 6.30 to 7.29.
`N#Cc1cccc(-c2ccc(C(CCNC3CCCC3)CNC(=O)c3ccc(F)c(F)c3)cc2)c1` (centres unmarked) [Example 83] gave a pKi of 6.30 to 7.29.
`N#Cc1cccc(-c2ccc(C(CCNC3CCCC3)CNC(=O)c3cccc(F)c3)cc2)c1` (centres unmarked) [Example 84] was tested, and the pKi was 6.30 to 7.29.
`N#Cc1cccc(-c2ccc(C(CCNC3CCCC3)CNC(=O)c3cccc(Cl)c3)cc2)c1` (centres unmarked) [Example 85] showed a pKi of 6.30 to 7.29.
`CS(=O)(=O)N(CCC(CNC(=O)Nc1cc(Cl)cc(Cl)c1)c1ccc(-c2cccc(C#N)c2)cc1)C1CCCC1` (centres unmarked) [Example 87] gave a pKi of 5.60 to 6.30.
In the case of `CN(C)CCCNCCC(CNC(=O)Nc1cc(Cl)cc(Cl)c1)c1ccc(-c2cccc(OC(F)(F)F)c2)cc1` (centres unmarked) [Example 88], the pKi was 7.30 to 9.40.
`O=C(NCC(CCNC1CCCC1)c1ccc(-c2ccc(F)c(F)c2)cc1)Nc1cc(Cl)cc(Cl)c1` (centres unmarked) [Example 90] gave a pKi of 7.30 to 9.40.
For `CN(C)CCCNCCC(CNC(=O)Nc1cc(Cl)cc(Cl)c1)c1ccc(-c2ccc(F)c(F)c2)cc1` (centres unmarked) [Example 92], the pKi was 7.30 to 9.40.
`O=C(NCC(CCNC1CCCC1)c1ccc(-c2ccc[n+]([O-])c2)cc1)Nc1cc(Cl)cc(Cl)c1` (centres unmarked) [Example 94] was tested, and the pKi was 7.30 to 9.40.
`O=C(NCC(CCNC1CCCC1)c1ccc(-c2cc(F)cc(F)c2)cc1)Nc1cc(Cl)cc(Cl)c1` (centres unmarked) [Example 95] showed a pKi of 7.30 to 9.40.
`Cc1noc(C)c1-c1ccc(C(CCNC2CCCC2)CNC(=O)Nc2cc(Cl)cc(Cl)c2)cc1` (centres unmarked) [Example 97] gave a pKi of 6.30 to 7.29.
`CN(C)CCCNCCC(CNC(=O)Nc1cc(Cl)cc(Cl)c1)c1ccc(-c2ccc(C#N)cc2)cc1` (centres unmarked) [Example 98] showed a pKi of 6.30 to 7.29.
